Data on 61 compounds can be found in the RepoRT retention time repository (doi:10.1016/j.jhazmat.2019.121712).

The data set in a line: Thermo Scientific Acclaim RSLC 120 C18, 100 × 2.1 mm, 2.2 µm, 30 °C; A: 90% water + 10% methanol + 0.01% formic acid + 5 mM ammonium formate; B: methanol + 0.01% formic acid + 5 mM ammonium formate; gradient (min/%B) 0.1/1 3/39 14/99.9 16/99.9. The conditions noted are these: stereoisomer not certain.
For `CCCc1nn(C)c2c(=O)[nH]c(-c3cc(S(=O)(=O)N4CCN(C5CCCC5)CC4)ccc3OCC)nc12`, the LC retention time is 9.01 min.

Consider `CCOP(=S)(OCC)SCSP(=S)(OCC)OCC`, for which the LC retention time came out at 12.4 min. In the case of `CCc1cnc(C2=NC(C)(C(C)C)C(=O)N2)c(C(=O)O)c1` (stereo unspecified), the LC retention time worked out at 5.6 min. Take `c1ccc2c(CC3=NCCN3)cccc2c1`: the LC retention time came to 4.84 min.

`CC=CC(=O)Oc1c(C(C)CCCCCC)cc([N+](=O)[O-])cc1[N+](=O)[O-]` (stereo unspecified): the LC retention time is 13.1 min.

In the case of `COC=C(C(=O)OC)c1ccccc1Oc1cc(Oc2ccccc2C#N)ncn1`, the LC retention time worked out at 9.02 min. With `CN(C)CCC=C1c2ccccc2COc2ccc(CC(=O)O)cc21`, the LC retention time came to 6.89 min.

For `NC(=O)c1ncn(C2OC(CO)C(O)C2O)n1` (stereo unspecified), the LC retention time was determined as 1.36 min. On to `COC1C=COC2(C)Oc3c(C)c(O)c4c(O)c(c5c(nc6cc(C)ccn65)c4c3C2=O)NC(=O)C(C)=CC=CC(C)C(O)C(C)C(O)C(C)C(OC(C)=O)C1C` (stereo unspecified), for which the LC retention time was found to be 10.1 min. With `Nc1ncnc2c1ncn2C1OC(CO)C(O)C1O` (stereo unspecified) the figure was 3.14 min; with `CC(=O)Oc1ccc2c3c1OC1C(OC(C)=O)C=CC4C(C2)N(C)CCC341` (stereo unspecified), 4.63 min.

Regarding `CNCCCC(C#N)(c1ccc(OC)c(OC)c1)C(C)C` (stereo unspecified), the LC retention time worked out at 6.14 min. Consider `CC(C)C1(C)N=C(c2ncccc2C(=O)O)NC1=O` (stereo unspecified), for which the LC retention time worked out at 4.1 min. As for `CCC(C)(C)c1ccc(CC(C)CN2CC(C)OC(C)C2)cc1` (stereo unspecified), the LC retention time was determined as 12.9 min. The figure for `NC12CC3CC(CC(C3)C1)C2` is 4.86 min; for `Cc1nnc(NS(=O)(=O)c2ccc(N)cc2)s1` it is 4.21 min.

For `CC(C)(C(=O)c1cccnc1)c1cccnc1`, the LC retention time came to 6.21 min.

Regarding `CC(CN1c2ccccc2Sc2cccnc21)N(C)C` (stereo unspecified), the LC retention time came out at 6.47 min.

With `CCCCCn1cc(C(=O)c2ccc(C)c3ccccc23)c2ccccc21`, the LC retention time stood at 12.9 min. With `COCCCOc1ccnc(CS(=O)c2nc3ccccc3[nH]2)c1C` (stereo unspecified) the figure was 7.52 min; with `CCOc1c(N)c2c(c(OCC)c1OCC)C(C1c3c(cc4c(c3OC)OCO4)CCN1C)OC2=O` (stereo unspecified), 12 min. As to `CCc1cccc2c3c([nH]c12)C(CC)(CC(=O)O)OCC3` (stereo unspecified), the LC retention time amounted to 10.6 min. As to `CCCCOc1cc(C(=O)NCCN(CC)CC)c2ccccc2n1`, the LC retention time stood at 8.41 min. Take `CN1CCN(CC(=O)N2c3ccccc3C(=O)Nc3cccnc32)CC1`: the LC retention time worked out at 4.11 min. Consider `OCCN1CCN(CCCN2c3ccccc3C=Cc3ccccc32)CC1`, for which the LC retention time was determined as 7.83 min.

For the compound `CC(NCCC(c1ccccc1)c1ccccc1)c1ccccc1` (stereo unspecified), the LC retention time is 8.54 min.

Consider `CC(CS)C(=O)N1CCCC1C(=O)O` (stereo unspecified), for which the LC retention time is 4.59 min. Take `Cc1cc(C(C)(C)C)c(O)c(C)c1CC1=NCCN1`: the LC retention time amounted to 6.99 min. On to `CC(Cc1ccc(C(C)C(=O)O)cc1)C(=O)O` (stereo unspecified), for which the LC retention time came to 6.99 min. `COc1ccc(C(=O)c2cn(CCCCC(=O)O)c3ccccc23)cc1`: the LC retention time is 8.81 min. Take `CC(C)(C)c1ccc(CCOc2ncnc3ccccc23)cc1`: the LC retention time came out at 13.7 min. As to `CCCSC(=O)N(CCC)CCC`, the LC retention time came out at 11.5 min.

`COc1cc(SC(C)C)c(OC)cc1CCN`: the LC retention time was determined as 6.69 min. With `CCCCC1C(=O)N(c2ccccc2)N(c2ccccc2)C1=O`, the LC retention time is 8.98 min. Turning to `C=CC=CCC1=C(C)C(OC(=O)C2C(C=C(C)C(=O)OC)C2(C)C)CC1=O` (stereo unspecified), the LC retention time was 11.7 min.

As to `CN(CCOc1ccc(CC2SC(=O)NC2=O)cc1)c1ccccn1` (stereo unspecified), the LC retention time turned out to be 6.98 min. As for `CCCC(C(=O)OCCN(CC)CC)(c1ccccc1)c1ccccc1`, the LC retention time was 9.41 min. Consider `CC=CC(=O)N(CC)c1ccccc1C`, for which the LC retention time was 9.24 min. The figure for `COc1cc2nc(N3CCN(C(=O)C4CCCO4)CC3)nc(N)c2cc1OC` (stereo unspecified) is 4.92 min.

Regarding `Cc1cc(C)n(-c2nc3ccccc3[nH]2)n1`, the LC retention time turned out to be 8.27 min. `CNC(=O)Oc1ccccc1C1OCCO1`: the LC retention time came to 5.16 min.

As for `CCS(=O)(=O)CCSP(=O)(OC)OC`, the LC retention time is 4.15 min. Turning to `CC(O)C1C(=O)N2C(C(=O)O)=C(SC3CNC(C(=O)N(C)C)C3)C(C)C12` (stereo unspecified), the LC retention time was determined as 10.6 min. For `CN(C)CCCN1c2ccccc2Sc2cccnc21`, the LC retention time amounted to 7.21 min. The figure for `COCc1cnc(C2=NC(C)(C(C)C)C(=O)N2)c(C(=O)O)c1` (stereo unspecified) is 4.63 min. As for `CC(C)C(N)C(=O)OCC(CO)OCn1cnc2c(=O)[nH]c(N)nc21` (stereo unspecified), the LC retention time was determined as 2.71 min. Consider `CCN(CC)C(=O)C1(c2ccccc2)CC1CN` (stereo unspecified), for which the LC retention time came out at 5.73 min. The figure for `COc1cc2nc(N3CCN(C(=O)c4ccco4)CC3)nc(N)c2cc1OC` is 5.34 min. As to `CC(C)(C)NCC(O)COc1ccc(NC(=O)NC2CCCCC2)cc1` (stereo unspecified), the LC retention time is 6.58 min.

On to `CN(C)CCC=C1c2ccccc2C=Cc2ccccc21`, for which the LC retention time was 7.95 min. The figure for `COc1ccc(C(CN(C)C)C2(O)CCCCC2)cc1` (stereo unspecified) is 6.14 min; for `CCCCn1c(O)c(C(=O)c2cccc3ccccc23)c2ccccc21` it is 13.5 min. Regarding `CCCC1C(=O)N2C(N(C)C)=Nc3ccc(C)cc3N2C1=O` (stereo unspecified), the LC retention time stood at 6.54 min.

Turning to `CNC(C)C(=O)c1ccc(OC)cc1` (stereo unspecified), the LC retention time was determined as 4.16 min. The figure for `CN1C(=O)CCC1c1cccnc1` (stereo unspecified) is 3.75 min; for `NC1Cc2cc3c(cc2C1)OCO3` it is 3.81 min; for `CCOP(=S)(OCC)SCCS(=O)CC` (stereo unspecified) it is 7.86 min. For `OC(c1ccccc1)(c1ccccc1)C1CCCCN1` (stereo unspecified), the LC retention time worked out at 5.78 min. `CCN(CC)C(=O)NC1C=C2c3cccc4[nH]cc(c34)CC2N(C)C1` (stereo unspecified): the LC retention time was determined as 5.92 min. Regarding `CCCCc1c(C)nc(N(C)C)[nH]c1=O`, the LC retention time worked out at 7.7 min. Turning to `CCCCOC(=O)c1ccccc1C(=O)OCc1ccccc1`, the LC retention time stood at 12.4 min.
